Data as given in patent US20250025443A1, “COMPOUNDS AND METHODS FOR TREATING CORONA VIRUSES” (CLEAR CREEK BIO, INC., priority 2021, published 2025).

molecular target: SARS-CoV-2 Papain-Like Protease (PLpro) (Severe acute respiratory syndrome coronavirus 2 (2019-nCoV) (SARS-CoV-2), UniProt P0DTD1); experiment: biochemical; conditions: PLpro enzymatic fluorescence assay; class symbols; read-out: PLpro IC50

Compound | IC50
Cc1ccc2c(C3(NC(=O)c4cc(OC[C@@H]5CCN5C)ccc4C)CC3)cc(N3CC(C(F)(F)F)C3)cc2n1 [Compound 810, (S)-2-Methyl-N-(1-(2-methyl-7-(3-(trifluoromethyl)azetidin-1-yl)quinolin-5-yl)cyclopropyl)-5-((1-methylazetidin-2-yl)methoxy)benzamide] | < 100 nM
Cc1ccc(OC[C@@H]2CCN2)cc1C(=O)NC1(c2cc(-c3ccc(=O)[nH]c3)cc3ncccc23)CC1 [Compound 674, (S)-5-(Azetidin-2-ylmethoxy)-2-methyl-N-(1-(7-(6-oxo-1,6-dihydropyridin-3-yl)quinolin-5-yl)cyclopropyl)benzamide] | < 100 nM
COc1cccc(C2(NC(=O)c3cc(OCCN(C)C)ccc3C)CC2)c1 [Compound 278, 5-(2-(Dimethylamino)ethoxy)-N-(1-(3-methoxyphenyl)cyclopropyl)-2-methylbenzamide] | > 5000 nM
Cc1ccc(OCC(C)N)cc1C(=O)NC1(c2cccc3ncccc23)CC1 (stereo not drawn) [Compound 498, 5-(2-Aminopropoxy)-2-methyl-N-(1-(quinolin-5-yl)cyclopropyl)benzamide] | < 100 nM
Cc1ccc(OC[C@@H]2CCN2)cc1C(=O)NC1(c2cc(-c3cnn(C)c3)cc3ncccc23)CC1 [Compound 665, (S)-5-(Azetidin-2-ylmethoxy)-2-methyl-N-(1-(7-(1-methyl-1H-pyrazol-4-yl)quinolin-5-yl)cyclopropyl)benzamide] | < 100 nM
Cc1ccc(OC[C@@H]2CCN2C)cc1C(=O)NC1(c2cc(-c3ccn(C(F)F)n3)cc3ncccc23)CC1 [Compound 644, (S)-N-(1-(7-(1-(Difluoromethyl)-1H-pyrazol-3-yl)quinolin-5-yl)cyclopropyl)-2-methyl-5-((1-methylazetidin-2-yl)methoxy)benzamide] | < 100 nM
CNCCOc1ccc(C)c(C(=O)NC2(c3cc(-c4cccs4)cc4ncccc34)CC2)c1 [Compound 630, 2-Methyl-5-(2-(methylamino)ethoxy)-N-(1-(7-(thiophen-2-yl)quinolin-5-yl)cyclopropyl)benzamide] | < 100 nM
COc1cc(C2(NC(=O)c3cc(OCC(N)C(C)C)ccc3C)CC2)c2cccnc2c1 (stereo not drawn) [Compound 572, 5-(2-Amino-3-methylbutoxy)-N-(1-(7-methoxyquinolin-5-yl)cyclopropyl)-2-methylbenzamide] | < 100 nM
COc1cc(C2(NC(=O)c3cc(OC[C@@H]4CCN4CCF)ccc3C)CC2)c2cccnc2c1 [Compound 567, (S)-5-((1-(2-Fluoroethyl)azetidin-2-yl)methoxy)-N-(1-(7-methoxyquinolin-5-yl)cyclopropyl)-2-methylbenzamide] | < 100 nM

same assay, conditions: SARS-CoV-2 PLpro enzymatic fluorescence assay; read-out: PLpro IC50

Compound | IC50
CNCCOc1ccc(C)c(C(=O)NC2(c3cc(OC)cc4ccccc34)CC2)c1 [Compound 347, N-(1-(3-Methoxynaphthalen-1-yl)cyclopropyl)-2-methyl-5-(2-(methylamino)ethoxy)benzamide] | < 100 nM
Cc1ccc(Nc2nccs2)cc1C(=O)N[C@H](C)c1cccc2ccccc12 [Compound 107, (R)-2-Methyl-N-(1-(naphthalen-1-yl)ethyl)-5-(thiazol-2-ylamino)benzamide] | > 5000 nM
CNCCOc1ccc(C)c(C(=O)NC2(c3cccc4ccccc34)CNC2)c1 [Compound 453, 2-Methyl-5-(2-(methylamino)ethoxy)-N-(3-(naphthalen-1-yl)azetidin-3-yl)benzamide] | > 5000 nM
Cc1cc(C)c(C(=O)NC2(c3cccc4ccccc34)CC2)cc1OCCN(C)C [Compound 405, 5-(2-(Dimethylamino)ethoxy)-2,4-dimethyl-N-(1-(naphthalen-1-yl)cyclopropyl)benzamide] | < 100 nM
CNCCOc1ccc(C)c(C(=O)NC2(c3cccc4ccccc34)CN(C)C2)c1 [Compound 499, 2-Methyl-N-(1-methyl-3-(naphthalen-1-yl)azetidin-3-yl)-5-(2-(methylamino)ethoxy)benzamide] | > 5000 nM
Cc1cc2cc(CN)[nH]c2cc1C(=O)NC1(c2cccc(Br)c2)CC1 [Compound 232, 2-(Aminomethyl)-N-(1-(3-bromophenyl)cyclopropyl)-5-methyl-1H-indole-6-carboxamide] | 1000 to 5000 nM
CCS(=O)(=O)N1CCC([C@@H](C)NC(=O)c2cc(NC3CN(C(=O)OC(C)(C)C)C3)ccc2C)CC1 [Compound 161, tert-Butyl (R)-3-((3-((1-(1-(ethylsulfonyl)piperidin-4-yl)ethyl)carbamoyl)-4-methylphenyl)amino)azetidine-1-carboxylate] | > 5000 nM
CN(C)CCOc1ccc(C2CC2)c(C(=O)NC2(c3cccc4ccccc34)CC2)c1 [Compound 353, 2-Cyclopropyl-5-(2-(dimethylamino)ethoxy)-N-(1-(naphthalen-1-yl)cyclopropyl)benzamide] | > 5000 nM
CNCCOc1ccc(C)c(C(=O)NC2(c3cccc4ccccc34)COC2)c1 [Compound 451, 2-Methyl-5-(2-(methylamino)ethoxy)-N-(3-(naphthalen-1-yl)oxetan-3-yl)benzamide] | < 100 nM
Cc1ccc(N)cc1C(=O)NC(c1cccc2ccccc12)C(F)(F)F (stereo not drawn) [Compound 183, 5-Amino-2-methyl-N-(2,2,2-trifluoro-1-(naphthalen-1-yl)ethyl)benzamide] | 1000 to 5000 nM
Cc1cc2c(cc1C(=O)NC1(c3cccc4ccccc34)CC1)NCCC2 [Compound 227, 6-Methyl-N-(1-(naphthalen-1-yl)cyclopropyl)-1,2,3,4-tetrahydroquinoline-7-carboxamide] | 100 to 1000 nM
Cc1ccc(N)cc1C(=O)NC1(c2cccc3ccccc23)COC1 [Compound 191, 5-Amino-2-methyl-N-(3-(naphthalen-1-yl)oxetan-3-yl)benzamide] | 100 to 1000 nM
Cc1ccc(N2CCC(N)CC2)cc1C(=O)NC1(c2cccc3ccccc23)CC1 [Compound 463, 5-(4-Aminopiperidin-1-yl)-2-methyl-N-(1-(naphthalen-1-yl)cyclopropyl)benzamide] | 100 to 1000 nM
5-((1-(2-Hydroxyethyl)azetidin-2-yl)methoxy)-2-methyl-N-(1-(naphthalen-1-yl)cyclopropyl)benzamide [Compound 341] | < 100 nM
Cc1ccc(OCC2CCN2C)cc1C(=O)NC1(c2cc(C(N)=O)cc3ccccc23)CC1 (stereo not drawn) [Compound 520, 4-(1-(2-Methyl-5-((1-methylazetidin-2-yl)methoxy)benzamido)cyclopropyl)-2-naphthamide] | < 100 nM
Cc1ccc(OCCN(C)C)cc1C(=O)NC1(c2ccccc2Cl)CC1 [Compound 326, N-(1-(2-chlorophenyl)cyclopropyl)-5-(2-(dimethylamino)ethoxy)-2-methylbenzamide] | 1000 to 5000 nM
Cc1ccc(OCCN(C)C)cc1C(=O)NC1(c2ccc(Oc3ccccc3)cc2)CC1 [Compound 279, 5-(2-(Dimethylamino)ethoxy)-2-methyl-N-(1-(4-phenoxyphenyl)cyclopropyl)benzamide] | 1000 to 5000 nM
Cc1ccc(N)cc1C(=O)NC(c1cccc2ccccc12)C1CCOCC1 (stereo not drawn) [Compound 109, 5-Amino-2-methyl-N-(naphthalen-1-yl(tetrahydro-2H-pyran-4-yl)methyl)benzamide] | > 5000 nM
Cc1ccc(OCCN(C)C)cc1C(=O)NC1(c2ccccc2C)CC1 [Compound 282, 5-(2-(Dimethylamino)ethoxy)-2-methyl-N-(1-(o-tolyl)cyclopropyl)benzamide] | 1000 to 5000 nM
Cc1ccc(OCCN(C)C)cc1C(=O)NC1(c2cccc3occc23)CC1 [Compound 357, N-(1-(Benzofuran-4-yl)cyclopropyl)-5-(2-(dimethylamino)ethoxy)-2-methylbenzamide] | 100 to 1000 nM
C=Cc1cc(C2(NC(=O)c3cc(OC[C@@H]4CCN4C)c(N)cc3C)CC2)c2cccnc2c1 [Compound 726, (S)-4-Amino-2-methyl-5-((1-methylazetidin-2-yl)methoxy)-N-(1-(7-vinylquinolin-5-yl)cyclopropyl)benzamide] | < 100 nM
Cc1cc2nc[nH]c2cc1C(=O)N[C@H](C)c1cccc(-c2ccc(CN3CCCC3)s2)c1 [Compound 126, (R)-5-Methyl-N-(1-(3-(5-(pyrrolidin-1-ylmethyl)thiophen-2-yl)phenyl)ethyl)-1H-benzo[d]imidazole-6-carboxamide] | 1000 to 5000 nM
COCCN1CCC1COc1ccc(C)c(C(=O)NC2(c3cccc4ccccc34)CC2)c1 (stereo not drawn) [Compound 348, 5-((1-(2-Methoxyethyl)azetidin-2-yl)methoxy)-2-methyl-N-(1-(naphthalen-1-yl)cyclopropyl)benzamide] | < 100 nM
Cc1ccc(OCCN(C)C)cc1C(=O)NC1(c2cccc3ccc(F)cc23)CC1 [Compound 365, 5-(2-(Dimethylamino)ethoxy)-N-(1-(7-fluoronaphthalen-1-yl)cyclopropyl)-2-methylbenzamide] | < 100 nM
CCNCCOc1ccc(C)c(C(=O)NC2(c3cccc4ccccc34)CC2)c1 [Compound 351, 5-(2-(Ethylamino)ethoxy)-2-methyl-N-(1-(naphthalen-1-yl)cyclopropyl)benzamide] | < 100 nM
C=Cc1cc(C2(NC(=O)c3cc(OCC45CCCN4CCC5)ccc3C)CC2)c2cccnc2c1 [Compound 748, 2-Methyl-5-((tetrahydro-1H-pyrrolizin-7a (5H)-yl)methoxy)-N-(1-(7-vinylquinolin-5-yl)cyclopropyl)benzamide] | < 100 nM
5-(2-Hydroxyethoxy)-2-methyl-N-(1-(naphthalen-1-yl)cyclopropyl)benzamide [Compound 393] | 100 to 1000 nM
Cc1ccc(OCCN(C)C)cc1C(=O)NC1(c2cn(C)c3ccccc23)CC1 [Compound 354, 5-(2-(Dimethylamino)ethoxy)-2-methyl-N-(1-(1-methyl-1H-indol-3-yl)cyclopropyl)benzamide] | 100 to 1000 nM
Cc1ccc(CCC2CCN2C)cc1C(=O)NC1(c2cccc3ccccc23)CC1 (stereo not drawn) [Compound 455, 2-Methyl-5-(2-(1-methylazetidin-2-yl)ethyl)-N-(1-(naphthalen-1-yl)cyclopropyl)benzamide] | < 100 nM
Cc1ccc(OC[C@@H]2CCN2C)cc1C(=O)NC1(c2cc(Cl)cc3ncccc23)CC1 [Compound 624, (S)-N-(1-(7-Chloroquinolin-5-yl)cyclopropyl)-2-methyl-5-((1-methylazetidin-2-yl)methoxy)benzamide] | < 100 nM
